# In patent US8999384B2, “Immediate release compositions of acid labile drugs” (priority 2010, dated 2015):
# Assay: Acid neutralizing capacity of buffers: buffer added to basal SGF and titrated with excess 0.1N HCl for 1 hour
# Assay type: physicochemical
# Details: for initial rise in pH: at the buffer quantity required to neutralize the SGF (quantity stated per buffer); for pH upon addition of excess acid for a period of 1 h: at the buffer quantity required to neutralize the SGF, 0.1N HCl at 0.5 ml/minute; for quantity of buffer required to neutralize the basal SGF: basal SGF: 9.6 ml of 0.1N HCl + 210 ml of water
# Protocol: A number of buffers, both soluble and insoluble, were tested for their acid neutralizing capacity. Based on their acid neutralizing capacity, buffers, both individual and combination, were evaluated for their behavior at the excess secretion of acid. The technique involved consists of adding an excess dose of the buffer to a sample of artificial gastric juice. […] The model was simulated in vitro and the buffer was added to the basal SGF medium containing 9.6 ml of 0.1N HCl+210 ml of water and titrated with excess acid (0.1N HCl) at the rate of 0.5 ml/minute for a period of 1 hour (total volume=250 ml). The buffer(s) which maintained a pH above 6.0 at the excess secretion of acid was selected.
initial rise in pH,pH upon addition of excess acid for a period of 1 h,quantity of buffer required to neutralize the basal SGF,Compound
7,7,About 80 mg,[Mg+2].[O-2] [Heavy Magnesium oxide]
8,8,About 1000 mg,NC(CO)(CO)CO [Tromethamine]
